Test results reported in patent US10196398B2, “Pesticidally active tetracyclic derivatives with sulfur containing substituents” (Syngenta Participations AG, priority 2014, dated 2019).
Read-outs that look alike come from different tables or passages of the source.

Key:
Type in all cases: in vivo
[1] = system: Plutella xylostella; experiment: Example B5: Plutella xylostella (diamond back moth), artificial diet; settings: 120 h, read-out: effect in at least one of the two categories (mortality or growth inhibition)
Protocol: Example B5: Plutella xylostella (Diamond Back Moth)
24-well microtiter plates with artificial diet were treated with aqueous test solutions prepared from 10′000 ppm DMSO stock solutions by pipetting. After drying, the plates were infested with L2 larvae (10 to 15 per well). The samples were assessed for mortality and growth inhibition in comparison to untreated samples 5 days after infestation.

[2] = system: Euschistus heros; experiment: Example B2: Euschistus heros (neotropical brown stink bug), sprayed soybean leaves; settings: 120 h, read-out: effect in at least one of the two categories (mortality or growth inhibition)
Protocol: Example B2: Euschistus heros(Neotropical Brown Stink Bug)
Soybean leaves on agar in 24-well microtiter plates were sprayed with aqueous test solutions prepared from 10′000 ppm DMSO stock solutions. After drying the leaves were infested with N2 nymphs. The samples were assessed for mortality and growth inhibition in comparison to untreated samples 5 days after infestation.

[3] = system: Frankliniella occidentalis; experiment: Example B7: Frankliniella occidentalis (western flower thrips), feeding/contact activity; settings: 168 h, application rate of 200 ppm, population of mixed ages, 7 days after infestation
Protocol: Example B7: Frankliniella occidentalis (Western Flower Thrips):Feeding/Contact Activity
Sunflower leaf discs were placed on agar in 24-well microtiter plates and sprayed with aqueous test solutions prepared from […] stock solutions. After drying the leaf discs were infested with a Frankliniella population of mixed ages. The samples were assessed for mortality 7 days after infestation.

[4] = system: Myzus persicae; experiment: Example B3: Myzus persicae (green peach aphid), feeding/contact activity; settings: 144 h
Protocol: Example B3: Myzus persicae (Green Peach Aphid):Feeding/Contact Activity
Sunflower leaf discs were placed onto agar in a 24-well microtiter plate and sprayed with aqueous test solutions prepared from 10′000 ppm DMSO stock solutions. After drying, the leaf discs were infested with an aphid population of mixed ages. The samples were assessed for mortality 6 days after infestation.

[5] = system: Myzus persicae; experiment: Example B4: Myzus persicae (green peach aphid), systemic activity; settings: 144 h, test rate of 24 ppm, roots of pea seedlings in test solution, 6 days
Protocol: Example B4: Myzus persicae (Green Peach Aphid). Systemic Activity
Roots of pea seedlings infested with an aphid population of mixed ages were placed directly into aqueous test solutions prepared from 10′000 DMSO stock solutions. The samples were assessed for mortality 6 days after placing seedlings into test solutions.

[6] = system: Thrips tabaci; experiment: Example B8: Thrips tabaci (onion thrips), feeding/contact activity; settings: 144 h, application rate of 200 ppm, population of mixed ages, 6 days after infestation
Protocol: Example B8: Thrips tabaci (Onion Thrips) Feeding/Contact Activity
Sunflower leaf discs were placed on agar in 24-well microtiter plates and sprayed with aqueous test solutions prepared from 10′000 ppm DMSO stock solutions. After drying the leaf discs were infested with a thrips population of mixed ages. The samples were assessed for mortality 6 days after infestation.

[7] = system: Diabrotica balteata; experiment: Example B1: Diabrotica balteata (corn root worm), sprayed maize sprouts; settings: 96 h, read-out: effect in at least one of the two categories (mortality or growth inhibition)
Protocol: Example B1: Diabrotica balteata (Corn Root Worm)
Maize sprouts placed onto an agar layer in 24-well microtiter plates were treated with aqueous test solutions prepared from 10′000 ppm DMSO stock solutions by spraying. After drying, the plates were infested with L2 larvae (6 to 10 per well). The samples were assessed for mortality and growth inhibition in comparison to untreated samples 4 days after infestation.

[8] = system: Spodoptera littoralis; experiment: whole plant or invertebrate; settings: in Gossypium barbadense, 144 h, read-out: effect in at least one of the three categories (mortality, anti-feeding, or growth inhibition)
From the text: (§1) Example B6: Spodoptera littoralis (Egyptian Cotton Leaf Worm)
Test compounds were applied by pipette from 10′000 ppm DMSO stock solutions into 24-well plates and mixed with agar. Lettuce seeds were placed onto the agar and the multi well plate was closed by another plate which contained also agar. After 7 days the compound was absorbed by the roots and the lettuce grew into the lid plate. The lettuce leaves were then cut off into the lid plate. Spodoptera eggs were pipetted through a plastic stencil onto a humid gel blotting paper and the lid plate was closed with it. The samples were assessed for mortality, anti-feedant effect and growth inhibition in comparison to untreated samples 6 days after infestation.

[9] = system: Spodoptera littoralis; experiment: whole plant or invertebrate; settings: foliar, 72 h, read-out: control (mortality, anti-feeding effect, or growth inhibition)
Protocol: as §1
Cotton leaf discs were placed onto agar in 24-well microtiter plates and sprayed with aqueous test solutions prepared from 10′000 ppm DMSO stock solutions. After drying the leaf discs were infested with five L1 larvae. The samples were assessed for mortality, anti-feeding effect, and growth inhibition in comparison to untreated samples 3 days after infestation. Control of Spodoptera littoralis by a test sample is given when at least one of the categories mortality, anti-feedant effect, and growth inhibition is higher than the untreated sample.

CCS(=O)(=O)c1cc2c(cc1-c1cn3cnc(C(F)(F)F)cc3n1)nc(C(F)(F)F)n2C [Compound P2, 2-[6-ethylsulfonyl-1-methyl-2-(trifluoromethyl)benzimidazol-5-yl]-7-(trifluoromethyl)imidazo[1,2-c]pyrimidine]
≥ 80%: percent effect (mortality or growth inhibition) at 200 ppm ([1]; application rate of 200 ppm, L2 larvae, 5 days after infestation) | percent effect (mortality or growth inhibition) at 200 ppm ([2]; application rate of 200 ppm, N2 nymphs, 5 days after infestation) | mortality at 200 ppm [3] | mortality at 200 ppm ([4]; application rate of 200 ppm, aphid population of mixed ages, 6 days after infestation, read-out: mortality) | mortality at 24 ppm [5] | mortality at 200 ppm [6] | percent effect (mortality or growth inhibition) at 200 ppm ([7]; application rate of 200 ppm, L2 larvae, 4 days after infestation)

CCS(=O)(=O)c1cc2ccccc2nc1-c1cn2cnc(C(F)(F)F)cc2n1 [Compound P1, 3-ethylsulfonyl-2-[7-(trifluoromethyl)imidazo[1,2-c]pyrimidin-2-yl]quinolone]
≥ 80%: percent control (mortality or growth inhibition) at 200 ppm [1] | percent control (mortality, anti-feedant effect or growth inhibition) at 12.5 ppm [8] | percent control (mortality or growth inhibition) at 200 ppm [2] | percent control (mortality, anti-feedant effect or growth inhibition) at 200 ppm [9] | mortality at 200 ppm [4] | percent control (mortality or growth inhibition) at 200 ppm [7]
